# Assays:
# [1] = molecular target: Histone deacetylase 3/Nuclear receptor corepressor 2 (HDAC3/NCoR2) (Homo sapiens, UniProt O15379); assay: biochemical; set-up: species or system Sf9
# HepG2 = assay: cells; format: functional, cell-based; settings: Homo sapiens, HepG2, 48 h
# SGC-7901 = assay: Antiproliferative activity against human SGC-7901 cells measured after 48 hrs by MTT assay; format: functional, cell-based; settings: SGC-7901, 48 h
# Histone deacetylase = format: cell-based, Homo sapiens; settings: hela
# K562 = assay: cells; format: functional, cell-based; settings: Homo sapiens, K562, 48 h
# Histone deacetylase 4 = Histone deacetylase 4 (Homo sapiens, UniProt P56524); assay: Inhibition of recombinant human N-terminal GST-fused/C-terminal His-tagged HDAC4 (627 to 1084 residues) expressed in baculovirus infected Sf9 insect cells using fluorogenic HDAC class 2a substrate measured after 30 mins by fluorimetry
# MDA-MB-231 [2] = assay: Antiproliferative activity against human MDA-MB-231 cells measured after 48 hrs by MTT assay; format: functional, cell-based; settings: MDA-MB-231, 48 h
# Histone deacetylase 1 = Histone deacetylase 1 (Homo sapiens, UniProt Q13547); assay: Inhibition of recombinant human full-length C-terminal Flag-His6-tagged HDAC1 (1 to 482 residues) expressed in Sf9 insect cells using fluorogenic HDAC substrate measured after 30 mins by fluorimetry
# A549 = assay: cells; format: functional, cell-based; settings: Homo sapiens, A549, 48 h
# [3] = molecular target: T1, Protein deacetylase HDAC6 (Homo sapiens, UniProt Q9UBN7); assay: Inhibition of recombinant human N-terminal GST-tagged HDAC6 (1 to 1215 residues) expressed in Sf9 insect cells using fluorogenic HDAC substrate 3 measured after 30 mins by fluorimetry
# T1 sequence (Q9UBN7 whole entry): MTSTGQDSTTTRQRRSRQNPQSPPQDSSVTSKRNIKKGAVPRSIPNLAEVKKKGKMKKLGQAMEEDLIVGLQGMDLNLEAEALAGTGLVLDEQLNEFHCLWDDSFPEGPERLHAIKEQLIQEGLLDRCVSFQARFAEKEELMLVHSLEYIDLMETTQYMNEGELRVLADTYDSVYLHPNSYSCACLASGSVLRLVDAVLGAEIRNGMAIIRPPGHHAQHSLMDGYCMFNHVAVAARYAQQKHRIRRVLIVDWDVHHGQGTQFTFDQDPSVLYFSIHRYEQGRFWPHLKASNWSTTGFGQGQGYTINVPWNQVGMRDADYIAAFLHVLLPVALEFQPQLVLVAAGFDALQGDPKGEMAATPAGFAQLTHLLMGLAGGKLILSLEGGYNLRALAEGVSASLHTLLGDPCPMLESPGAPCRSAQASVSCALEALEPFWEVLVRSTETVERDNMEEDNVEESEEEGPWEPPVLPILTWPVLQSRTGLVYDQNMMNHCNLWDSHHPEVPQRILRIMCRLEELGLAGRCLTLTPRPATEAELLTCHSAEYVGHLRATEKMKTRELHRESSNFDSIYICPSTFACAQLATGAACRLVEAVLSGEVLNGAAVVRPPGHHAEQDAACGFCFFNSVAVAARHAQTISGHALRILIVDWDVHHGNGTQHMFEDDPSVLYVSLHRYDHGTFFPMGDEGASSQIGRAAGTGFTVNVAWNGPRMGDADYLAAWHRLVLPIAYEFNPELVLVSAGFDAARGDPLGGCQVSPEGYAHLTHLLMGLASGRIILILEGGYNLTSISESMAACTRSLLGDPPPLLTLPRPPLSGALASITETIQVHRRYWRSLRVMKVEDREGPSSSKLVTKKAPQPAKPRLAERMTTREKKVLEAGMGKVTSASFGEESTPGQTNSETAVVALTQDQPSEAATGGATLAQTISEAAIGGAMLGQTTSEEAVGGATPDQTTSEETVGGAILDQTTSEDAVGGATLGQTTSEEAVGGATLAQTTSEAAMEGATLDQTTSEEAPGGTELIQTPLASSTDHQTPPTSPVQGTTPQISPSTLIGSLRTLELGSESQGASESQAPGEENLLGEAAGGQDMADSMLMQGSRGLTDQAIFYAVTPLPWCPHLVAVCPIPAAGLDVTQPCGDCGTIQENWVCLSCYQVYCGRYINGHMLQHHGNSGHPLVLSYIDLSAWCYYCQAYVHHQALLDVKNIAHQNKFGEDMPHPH
# MDA-MB-231 [4] = assay: Potency index, ratio of SAHA IC50 to test compound IC50 for antiproliferative activity against human MDA-MB-231 cells; format: functional
# MDA-MB-231 [5] = assay: Potency index, ratio of MS-275 IC50 to test compound IC50 for antiproliferative activity against human MDA-MB-231 cells; format: functional
# Histone deacetylase 8 = molecular target: T2, Histone deacetylase 8 (Homo sapiens, UniProt Q9BY41); assay: Inhibition of human full-length C-terminal His-tagged HDAC8 expressed in baculovirus infected Sf9 insect cell using fluorogenic HDAC class 2a substrate measured after 30 mins by fluorimetry
# T2 sequence (Q9BY41 whole entry): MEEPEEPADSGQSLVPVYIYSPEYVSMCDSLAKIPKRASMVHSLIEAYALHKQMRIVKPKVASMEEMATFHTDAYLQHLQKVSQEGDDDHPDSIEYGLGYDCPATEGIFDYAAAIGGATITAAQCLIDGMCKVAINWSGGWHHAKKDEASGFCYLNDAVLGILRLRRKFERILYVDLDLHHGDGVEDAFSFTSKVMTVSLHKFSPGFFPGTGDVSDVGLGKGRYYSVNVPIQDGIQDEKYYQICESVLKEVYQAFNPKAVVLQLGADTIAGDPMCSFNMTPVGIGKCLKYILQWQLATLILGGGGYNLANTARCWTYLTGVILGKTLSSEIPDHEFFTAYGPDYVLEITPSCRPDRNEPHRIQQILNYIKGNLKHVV
# HCT-116 = assay: Antiproliferative activity against human HCT-116 cells measured after 48 hrs by MTT assay; format: functional, cell-based; settings: HCT-116, 48 h
# in vitro = settings: dog, liver microsomes
# Sequence of Histone deacetylase 3/Nuclear receptor corepressor 2 (HDAC3/NCoR2) (O15379 whole entry): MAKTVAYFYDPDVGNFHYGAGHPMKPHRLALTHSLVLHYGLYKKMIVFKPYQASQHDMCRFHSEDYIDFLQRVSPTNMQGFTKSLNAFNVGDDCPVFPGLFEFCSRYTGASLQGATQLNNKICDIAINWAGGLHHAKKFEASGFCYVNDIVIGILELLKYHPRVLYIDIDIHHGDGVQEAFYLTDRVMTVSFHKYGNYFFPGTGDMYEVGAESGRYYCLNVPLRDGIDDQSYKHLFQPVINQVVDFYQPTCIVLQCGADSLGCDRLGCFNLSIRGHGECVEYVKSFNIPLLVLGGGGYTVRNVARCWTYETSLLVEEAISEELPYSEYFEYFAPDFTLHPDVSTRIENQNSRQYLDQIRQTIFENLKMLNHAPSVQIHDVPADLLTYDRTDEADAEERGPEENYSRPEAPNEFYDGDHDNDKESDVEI
# Sequence of Histone deacetylase 3/Nuclear receptor corepressor 2 (HDAC3/NCoR2) (Q9Y618 whole entry, further chain): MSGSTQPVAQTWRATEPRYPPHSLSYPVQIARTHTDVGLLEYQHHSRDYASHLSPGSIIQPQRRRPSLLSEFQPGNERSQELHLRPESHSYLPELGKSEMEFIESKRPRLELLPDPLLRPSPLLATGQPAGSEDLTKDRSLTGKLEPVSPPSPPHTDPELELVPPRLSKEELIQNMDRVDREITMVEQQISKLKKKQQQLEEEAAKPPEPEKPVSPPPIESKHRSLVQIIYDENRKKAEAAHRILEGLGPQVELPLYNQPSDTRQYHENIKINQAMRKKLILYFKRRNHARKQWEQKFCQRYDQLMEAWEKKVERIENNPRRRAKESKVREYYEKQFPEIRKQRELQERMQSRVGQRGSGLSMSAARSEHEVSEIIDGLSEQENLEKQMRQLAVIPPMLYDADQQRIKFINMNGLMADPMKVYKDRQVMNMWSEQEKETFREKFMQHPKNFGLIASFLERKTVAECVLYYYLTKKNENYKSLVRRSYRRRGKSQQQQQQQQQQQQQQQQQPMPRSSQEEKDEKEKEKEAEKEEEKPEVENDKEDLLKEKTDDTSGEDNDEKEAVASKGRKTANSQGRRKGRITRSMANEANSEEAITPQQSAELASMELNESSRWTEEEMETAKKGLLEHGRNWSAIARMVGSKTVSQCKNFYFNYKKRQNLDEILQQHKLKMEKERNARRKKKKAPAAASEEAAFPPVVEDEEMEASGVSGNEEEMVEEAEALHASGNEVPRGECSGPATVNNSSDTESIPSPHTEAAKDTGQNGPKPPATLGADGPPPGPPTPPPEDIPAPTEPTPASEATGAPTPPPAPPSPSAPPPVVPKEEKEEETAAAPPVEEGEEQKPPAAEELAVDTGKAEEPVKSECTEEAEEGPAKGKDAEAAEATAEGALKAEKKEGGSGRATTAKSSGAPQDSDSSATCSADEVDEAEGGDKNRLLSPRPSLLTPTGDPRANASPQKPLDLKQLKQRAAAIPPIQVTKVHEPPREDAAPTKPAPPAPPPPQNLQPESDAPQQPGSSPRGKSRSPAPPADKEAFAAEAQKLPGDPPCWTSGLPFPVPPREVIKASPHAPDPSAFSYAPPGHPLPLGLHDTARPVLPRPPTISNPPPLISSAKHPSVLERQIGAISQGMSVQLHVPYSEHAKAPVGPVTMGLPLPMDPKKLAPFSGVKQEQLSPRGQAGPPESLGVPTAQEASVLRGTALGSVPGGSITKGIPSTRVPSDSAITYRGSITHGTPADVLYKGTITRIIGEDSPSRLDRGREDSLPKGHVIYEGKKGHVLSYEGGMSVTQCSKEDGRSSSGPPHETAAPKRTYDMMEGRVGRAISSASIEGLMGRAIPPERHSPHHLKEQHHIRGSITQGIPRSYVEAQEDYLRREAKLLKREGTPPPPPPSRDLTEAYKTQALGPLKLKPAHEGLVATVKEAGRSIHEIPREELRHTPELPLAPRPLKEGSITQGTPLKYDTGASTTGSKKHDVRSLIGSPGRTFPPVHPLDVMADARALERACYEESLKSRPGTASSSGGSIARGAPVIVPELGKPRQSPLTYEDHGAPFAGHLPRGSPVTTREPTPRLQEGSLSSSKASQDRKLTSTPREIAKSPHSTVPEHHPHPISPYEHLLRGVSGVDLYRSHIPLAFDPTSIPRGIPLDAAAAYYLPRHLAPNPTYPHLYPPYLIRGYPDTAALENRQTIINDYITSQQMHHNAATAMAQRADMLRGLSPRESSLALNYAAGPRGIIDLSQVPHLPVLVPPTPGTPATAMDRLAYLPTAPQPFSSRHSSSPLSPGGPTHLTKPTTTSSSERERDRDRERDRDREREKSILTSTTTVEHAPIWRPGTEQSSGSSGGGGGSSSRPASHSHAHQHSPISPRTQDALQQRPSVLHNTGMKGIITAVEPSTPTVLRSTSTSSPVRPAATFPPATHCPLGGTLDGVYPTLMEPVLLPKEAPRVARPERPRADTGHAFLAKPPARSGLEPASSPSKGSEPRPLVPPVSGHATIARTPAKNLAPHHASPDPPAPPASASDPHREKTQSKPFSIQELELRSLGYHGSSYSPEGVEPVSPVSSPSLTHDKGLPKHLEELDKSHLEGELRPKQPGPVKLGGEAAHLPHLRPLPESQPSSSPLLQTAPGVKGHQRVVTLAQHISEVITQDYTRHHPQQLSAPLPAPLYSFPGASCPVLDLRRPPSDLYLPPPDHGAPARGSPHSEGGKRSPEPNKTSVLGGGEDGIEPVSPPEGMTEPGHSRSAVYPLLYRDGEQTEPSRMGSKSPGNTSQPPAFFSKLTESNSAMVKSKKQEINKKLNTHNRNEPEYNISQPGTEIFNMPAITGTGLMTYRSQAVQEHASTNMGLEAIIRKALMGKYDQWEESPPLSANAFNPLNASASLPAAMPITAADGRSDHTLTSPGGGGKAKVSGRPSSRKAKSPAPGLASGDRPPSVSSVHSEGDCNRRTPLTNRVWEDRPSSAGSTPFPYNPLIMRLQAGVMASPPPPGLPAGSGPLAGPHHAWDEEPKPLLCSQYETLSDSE
# Sequence of Histone deacetylase 1 (Q13547 whole entry, the tested form may be a part): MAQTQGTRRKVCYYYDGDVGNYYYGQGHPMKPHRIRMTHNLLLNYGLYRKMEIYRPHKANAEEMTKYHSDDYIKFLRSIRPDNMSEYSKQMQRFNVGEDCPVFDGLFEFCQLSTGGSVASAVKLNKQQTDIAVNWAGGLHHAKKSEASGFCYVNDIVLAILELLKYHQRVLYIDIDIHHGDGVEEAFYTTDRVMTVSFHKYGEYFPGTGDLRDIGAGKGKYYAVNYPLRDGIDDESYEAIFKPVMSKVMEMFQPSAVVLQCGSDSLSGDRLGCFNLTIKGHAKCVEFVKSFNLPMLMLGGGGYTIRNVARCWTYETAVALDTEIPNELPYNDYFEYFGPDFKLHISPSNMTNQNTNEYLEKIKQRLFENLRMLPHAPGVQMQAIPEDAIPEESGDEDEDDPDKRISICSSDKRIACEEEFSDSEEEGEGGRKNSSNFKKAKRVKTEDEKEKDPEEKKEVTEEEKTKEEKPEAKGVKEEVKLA
# Sequence of Histone deacetylase 4 (P56524 whole entry, the tested form may be a part): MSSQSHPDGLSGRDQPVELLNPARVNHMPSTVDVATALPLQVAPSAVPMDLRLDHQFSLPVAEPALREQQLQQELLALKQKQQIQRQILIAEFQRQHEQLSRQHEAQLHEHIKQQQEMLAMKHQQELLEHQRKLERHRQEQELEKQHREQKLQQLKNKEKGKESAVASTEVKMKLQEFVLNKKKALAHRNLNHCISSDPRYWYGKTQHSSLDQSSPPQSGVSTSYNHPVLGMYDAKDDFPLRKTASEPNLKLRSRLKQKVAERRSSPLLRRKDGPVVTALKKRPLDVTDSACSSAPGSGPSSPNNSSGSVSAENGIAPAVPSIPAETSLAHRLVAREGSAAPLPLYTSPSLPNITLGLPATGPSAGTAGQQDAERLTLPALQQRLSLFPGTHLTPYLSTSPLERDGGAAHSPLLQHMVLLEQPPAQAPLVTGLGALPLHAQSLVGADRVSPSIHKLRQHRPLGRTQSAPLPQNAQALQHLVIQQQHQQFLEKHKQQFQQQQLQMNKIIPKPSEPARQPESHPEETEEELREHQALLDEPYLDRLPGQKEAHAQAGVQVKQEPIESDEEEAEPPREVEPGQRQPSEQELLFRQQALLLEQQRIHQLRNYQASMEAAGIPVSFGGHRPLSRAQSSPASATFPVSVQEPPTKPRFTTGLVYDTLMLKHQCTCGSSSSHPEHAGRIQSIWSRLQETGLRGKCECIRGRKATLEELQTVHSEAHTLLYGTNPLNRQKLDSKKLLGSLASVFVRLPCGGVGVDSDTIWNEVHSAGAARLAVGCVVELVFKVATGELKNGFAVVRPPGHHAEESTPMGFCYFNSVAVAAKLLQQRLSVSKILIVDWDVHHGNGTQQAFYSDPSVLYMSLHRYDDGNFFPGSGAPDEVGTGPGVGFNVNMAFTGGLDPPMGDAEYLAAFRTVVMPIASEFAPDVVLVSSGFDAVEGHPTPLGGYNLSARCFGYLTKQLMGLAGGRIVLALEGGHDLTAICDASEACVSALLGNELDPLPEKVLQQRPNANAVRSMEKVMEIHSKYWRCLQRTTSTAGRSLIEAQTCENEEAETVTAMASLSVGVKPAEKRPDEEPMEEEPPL
Compound,IC50 (SGC-7901) [µM],IC50 (Histone deacetylase) [µM],IC50 (MDA-MB-231 [2]) [µM],IC50 (A549) [µM],IC50 (HCT-116) [µM],also measured
CNc1nc(Cl)nc2c1ncn2Cc1ccc(C(=O)Nc2ccccc2N)cc1,5.16,1.48,0.24,0.86,1.67,IC50 [1]: 1.77 µM; IC50 (HepG2): 2.29 µM; IC50 (K562): 0.023 µM; IC50 (Histone deacetylase 4): > 100 µM; IC50 (Histone deacetylase 1): 0.0774 µM; IC50 [3]: 21.8 µM; Ratio IC50 (MDA-MB-231 [4]): 4; Ratio IC50 (MDA-MB-231 [5]): 4; IC50 (Histone deacetylase 8): 1.02 µM
Cc1ccc(NC(=O)c2ccc(Cn3cnc4c(Cl)nc(Cl)nc43)cc2)c(N)c1,,25.04,,,,
Nc1cc(F)ccc1NC(=O)c1ccc(Cn2cnc3c(Cl)nc(Cl)nc32)cc1,,2.64,,,,
CCCNc1nc(Cl)nc2c1ncn2CCCC(=O)NCc1ccc(C(=O)Nc2ccccc2N)cc1,21.1,1.26,28.4,514,21.5,
Cc1ccc(Nc2nc(Cl)nc3c2ncn3CCCCCCCC(=O)NO)cc1,,0.0153,,,,
CCCCCNc1nc(Cl)nc2c1ncn2CCCC(=O)NCc1ccc(C(=O)Nc2ccccc2N)cc1,19.6,3.43,9.68,177,14.4,
CCCCCNc1nc(Cl)nc2c1ncn2Cc1ccc(C(=O)Nc2ccc(Br)cc2N)cc1,,18.68,,,,
CCCNc1nc(Cl)nc2c1ncn2Cc1ccc(C(=O)Nc2ccccc2N)cc1,1.99,0.574,0.05,0.8,5.5,IC50 [1]: 1.36 µM; IC50 (HepG2): 0.12 µM; IC50 (K562): 5.43 µM; IC50 (Histone deacetylase 4): > 100 µM; IC50 (Histone deacetylase 1): 0.309 µM; IC50 [3]: 43.7 µM; Ratio IC50 (MDA-MB-231 [4]): 4; Ratio IC50 (MDA-MB-231 [5]): 4; IC50 (Histone deacetylase 8): 1.88 µM
CCCNc1nc(Cl)nc2c1ncn2Cc1ccc(C(=O)Nc2ccc(Br)cc2N)cc1,,9.26,,,,
O=C(CCCCCCC(=O)Nc1ccccc1)NO [VORINOSTAT],2.12,,1.54,,1.55,half-life (in vitro): 30 min
CCN(CC)c1nc(Cl)nc2c1ncn2Cc1ccc(C(=O)Nc2ccc(F)cc2N)cc1,,4.24,,,,
CNc1nc(Cl)nc2c1ncn2Cc1ccc(C(=O)Nc2ccc(C)cc2N)cc1,,1.98,,,,
CCNc1nc(Cl)nc2c1ncn2Cc1ccc(C(=O)Nc2ccc(F)cc2N)cc1,,5.77,,,,
CCCNc1nc(Cl)nc2c1ncn2Cc1ccc(C(=O)Nc2ccc(F)cc2N)cc1,,4.41,,,,
CCNc1nc(Cl)nc2c1ncn2Cc1ccc(C(=O)Nc2ccc(Br)cc2N)cc1,,10.33,,,,
CCCCCNc1nc(Cl)nc2c1ncn2Cc1ccc(C(=O)Nc2ccc(C)cc2N)cc1,,2.03,,,,
CCCCCNc1nc(Cl)nc2c1ncn2Cc1ccc(C(=O)Nc2ccc(F)cc2N)cc1,,2.86,,,,

Compound,IC50 (SGC-7901) [µM],IC50 (Histone deacetylase) [µM],IC50 (MDA-MB-231 [2]) [µM],IC50 (A549) [µM],IC50 (HCT-116) [µM],also measured
CCNc1nc(Cl)nc2c1ncn2Cc1ccc(C(=O)Nc2ccc(C)cc2N)cc1,,5.57,,,,
CCNc1nc(Cl)nc2c1ncn2CCCC(=O)NCc1ccc(C(=O)Nc2ccccc2N)cc1,56.8,2.31,17.5,149,90.8,
CCN(CC)c1nc(Cl)nc2c1ncn2Cc1ccc(C(=O)Nc2ccc(Br)cc2N)cc1,,3.11,,,,
CCNc1nc(Cl)nc2c1ncn2Cc1ccc(C(=O)Nc2ccccc2N)cc1,0.99,1.64,0.06,0.86,1.53,IC50 [1]: 1.07 µM; IC50 (HepG2): 0.16 µM; IC50 (K562): 2.89 µM; IC50 (Histone deacetylase 4): > 100 µM; IC50 (Histone deacetylase 1): 0.0935 µM; IC50 [3]: 31.7 µM; Ratio IC50 (MDA-MB-231 [4]): 4; Ratio IC50 (MDA-MB-231 [5]): 4; IC50 (Histone deacetylase 8): 2.37 µM
Nc1cc(Br)ccc1NC(=O)c1ccc(Cn2cnc3c(Cl)nc(Cl)nc32)cc1,,9.1,,,,
CCCNc1nc(Cl)nc2c1ncn2Cc1ccc(C(=O)Nc2ccc(C)cc2N)cc1,,3.13,,,,
CCN(CC)c1nc(Cl)nc2c1ncn2CCCC(=O)NCc1ccc(C(=O)Nc2ccccc2N)cc1,59.9,3.91,11.1,392,20.6,
CCCCNc1nc(Cl)nc2c1ncn2CCCC(=O)NCc1ccc(C(=O)Nc2ccccc2N)cc1,64.1,0.95,5.64,165,11.2,
CCN(CC)c1nc(Cl)nc2c1ncn2Cc1ccc(C(=O)Nc2ccc(C)cc2N)cc1,,4.33,,,,
CCCCNc1nc(Cl)nc2c1ncn2Cc1ccc(C(=O)Nc2ccc(F)cc2N)cc1,,1.28,,,,
CCCCNc1nc(Cl)nc2c1ncn2Cc1ccc(C(=O)Nc2ccc(C)cc2N)cc1,,1.01,,,,
CCCCNc1nc(Cl)nc2c1ncn2Cc1ccc(C(=O)Nc2ccc(Br)cc2N)cc1,,2.04,,,,
Nc1ccccc1NC(=O)c1ccc(CNC(=O)OCc2cccnc2)cc1 [ENTINOSTAT],0.98,,,1.48,2.48,IC50 (HepG2): 1.76 µM; IC50 (K562): 1.19 µM
CNc1nc(Cl)nc2c1ncn2Cc1ccc(C(=O)Nc2ccc(F)cc2N)cc1,,1.73,,,,
CNc1nc(Cl)nc2c1ncn2Cc1ccc(C(=O)Nc2ccc(Br)cc2N)cc1,,2.16,,,,
CNc1nc(Cl)nc2c1ncn2CCCC(=O)NCc1ccc(C(=O)Nc2ccccc2N)cc1,27,5.02,15.5,97,87.1,
